Data: patent US20230416330A1, “Optimized GIP Peptide Analogues” (Antag Therapeutics ApS, priority 2019, published 2023)
Starred links: 1 amine or outer side, 2 acyl side, 3 side chain; linkers in the order of their positions; H or OH if unused. Non-standard residues stand in square brackets, D forms with d. Residues, ends and D or L forms follow the SMILES beside them. Groups on a side chain read outwards from the residue. *: point of attachment. C18 diacid = O=C(O)CCCCCCCCCCCCCCCCC(=O)*; C16 diacid = O=C(O)CCCCCCCCCCCCCCC(=O)*; γGlu = O=C(O)[C@H](CCC(=O)[*:2])N[*:1]; Glutaryl = O=C(CCCC(=O)[*:2])[*:1]; Nle = CCCC[C@H](N)C(=O)O; AEEA = NCCOCCOCC(=O)O; Aib = CC(C)(N)C(=O)O

Tests used:
[1] = molecular target: T1, human GIP receptor (Homo sapiens, UniProt P48546); assay: cAMP assay Alternative 1 (CisBio assay), GIPR antagonism; assay type: cell-based; conditions: Table 2B; for cAMP antagonism % inhib: % inhibition of Emax
T1 construct: host or cells: HEK-293 cells, transient transfection (Lipofectamine 2000), cDNA in pCMV-Script vector
T1 sequence (P48546 22-466): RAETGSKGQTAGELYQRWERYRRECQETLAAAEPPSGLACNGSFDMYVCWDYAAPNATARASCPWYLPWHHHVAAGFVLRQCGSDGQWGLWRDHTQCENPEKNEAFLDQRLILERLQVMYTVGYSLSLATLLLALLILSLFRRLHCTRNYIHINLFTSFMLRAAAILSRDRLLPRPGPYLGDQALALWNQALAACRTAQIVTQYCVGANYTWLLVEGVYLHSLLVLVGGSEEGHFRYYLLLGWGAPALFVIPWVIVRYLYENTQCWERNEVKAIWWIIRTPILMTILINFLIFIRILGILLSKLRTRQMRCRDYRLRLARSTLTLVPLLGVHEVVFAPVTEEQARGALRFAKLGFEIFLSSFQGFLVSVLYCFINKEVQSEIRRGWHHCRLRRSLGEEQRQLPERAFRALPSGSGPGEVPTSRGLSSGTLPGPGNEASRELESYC
Method in brief: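 HEK293 cells transiently transfected with hGIPR, compounds diluted in HBSS/HEPES/pluronic/casein with 500 uM IBMX; decrease in intracellular cAMP read by HTRF (665/620 nm) and converted via cAMP standard curve. pIC50 from four-parameter fit; agonism tested separately after 30 min at 37° C.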

[2] = Physical stability: fibril formation in Thioflavin T (ThT) assay with agitation; assay type: physicochemical; conditions: 25° C., agitation
Method in brief: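 Read-out is continuous ThT fluorescence at 486 nm, with lag time taken where signal reaches 10% between pre- and post-transition baselines. Filtered samples (1, 5, 7.5 or 15 mg/ml; pH 7.4 phosphate buffer or NaOH-adjusted water) were stressed at 25° C. by orbital rotation at 300 rpm with one silica bead per well.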

[3] = Solubility by visual inspection of peptide solutions; assay type: physicochemical
Method in brief: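 Solubility scored by eye: clear, colorless appearance after gentle mixing. Samples prepared at 1, 5, 7.5 or 15 mg/ml in either pH 7.4 water (NaOH-adjusted) or 50 mM sodium phosphate buffer, pH 7.4.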

[4] = molecular target: T1, human GIP receptor; assay: cAMP assay Alternative 2 (Gaddum assay), antagonist potency pKb; assay type: cell-based; conditions: Table 2C; Gaddum equation, single antagonist dose; HEK-293 hGIPR; read-out: nM (Kb)
Protocol: HEK293 cells were cultured in 10% CO2 and 37° C. in Dulbecco's modified Eagle's medium supplemented with 10% fetal bovine serum, 2 mM glutamine, 180 units/ml penicillin, and 45 µg/ml streptomycin. Transient transfection with hGIPR for the CisBio assay from Table 2C was performed by using Lipofectamine 2000.
Antagonist potency (pKb) was estimated in a functional setting. The estimated pKb values were calculated from the shifts of the agonist-concentration-response curves in the presence of a single dose of GIP peptide antagonists using the Gaddum equation: pKb=log(DR-1)-log(B), where DR (EC50′/EC50) is the dose ratio calculated from EC50 of GIP1-42 obtained in the presence and absence (EC50) of antagonist, and B is the antagonist concentration used.
The in vitro functional assessment of compounds towards human GIP receptor was determined in HEK-293 cells transiently expressing the receptor. On the day of the assay, cells were resuspended in HBSS buffer (Gibco, 14025-50) supplemented with […] (Gibco, 15630-106), 0.1% Pluronic F-68 (Gibco, 24040-032) and 0.1% casein (Sigma, C4765), and plated in 384-well plates at a density of 3500 cells/well. The GIP peptide analogues of the present disclosure were diluted in HBSS buffer supplemented with 20 mM HEPES, 0.1% pluronic, 0.1% casein and 500 uM IBMX. […] Increasing dose of agonist (GIP1-42) was subsequently added to cells and incubated for additionally 30 min at 37° C. The intracellular cAMP was quantitatively determined using the CisBio cAMP Dynamic 2 HTRF Assay Kit. The assay is based on a competition between native cAMP produced by cells and cAMP labeled with the dye d2 for binding to a cryptate labeled antibody. The specific signal (i.e. energy transfer signal) is inversely proportional to the concentration of cAMP in the sample.
The cAMP-d2 conjugate and the antibody anti-cAMP-Cryptate, both diluted in lysis buffer provided in the kit, were added to the cells according to the manufacturer's protocol. The resulting competitive assay was incubated for 60 minutes at room temperature, and the signal was detected by using a PerkinElmer Envision® instrument with excitation at 320 nm and emission at 665 nm and 620 nm. The HTRF ratio (emission at 665 nm/620 nm*10,000) is inversely proportional to the amount of cAMP present and is converted to nM cAMP per well using a cAMP standard curve.

| Compound | cAMP antagonism % inhib [1] | IC50 ([1]; HEK-293 cells transiently expressing hGIPR, agonist GIP1-42 at EC50, read-out: cAMP antagonism) | Avr lag time (h) ([2]; 1 mg/ml, TFA, Phosphate (7.4)) | Avr lag time (h) ([2]; 5 mg/ml, Na, MilliQ (8)) | Visual appearance ([3]; 1 mg/ml, TFA, Phosphate (7.4)) | Visual appearance ([3]; 5 mg/ml, Na, MilliQ (8)) | Avr lag time (h) ([2]; 7.5 mg/ml, Na, MilliQ (8)) | Avr lag time (h) ([2]; 15 mg/ml, Na, MilliQ (8)) | Visual appearance ([3]; 7.5 mg/ml, Na, MilliQ (8)) | Visual appearance ([3]; 15 mg/ml, Na, MilliQ (8)) | Kb [4] |
| --- | --- | --- | --- | --- | --- | --- | --- | --- | --- | --- | --- |
| CC[C@H](C)[C@H](NC(=O)[C@H](CCCCN)NC(=O)[C@H](CCC(=O)O)NC(=O)[C@H](CC(C)C)NC(=O)C(C)(C)NC(=O)[C@@H](NC(=O)[C@H](CO)NC(=O)[C@H](Cc1ccc(O)cc1)NC(=O)[C@H](CCC(=O)O)NC(=O)[C@H](CO)NC(=O)[C@@H](NC(=O)[C@H](Cc1ccccc1)NC(=O)[C@@H](NC(=O)CNC(=O)[C@@H](N)CCC(=O)O)[C@@H](C)O)[C@@H](C)CC)[C@@H](C)CC)C(=O)N[C@@H](CCCCNC(=O)COCCOCCNC(=O)COCCOCCNC(=O)CC[C@H](NC(=O)CCCCCCCCCCCCCCCCC(=O)O)C(=O)O)C(=O)N[C@@H](CCC(N)=O)C(=O)N[C@@H](CCC(N)=O)C(=O)N[C@@H](CCC(=O)O)C(=O)N[C@@H](Cc1ccccc1)C(=O)N[C@H](C(=O)N[C@@H](CCC(=O)O)C(=O)N[C@@H](Cc1c[nH]c2ccccc12)C(=O)N[C@@H](CC(C)C)C(=O)N[C@@H](CC(C)C)C(=O)N[C@@H](C)C(=O)N[C@@H](CCC(N)=O)C(=O)N[C@@H](CCCCN)C(=O)N1CCC[C@H]1C(=O)N[C@@H](CO)C(=O)N[C@@H](CO)C(=O)NCC(=O)N[C@@H](C)C(=O)N1CCC[C@H]1C(=O)N1CCC[C@H]1C(=O)N1CCC[C@H]1C(=O)N[C@@H](CO)C(=O)O)C(C)C [AT695] (H-EGTFISEYSI[Aib]LEKIK([AEEA-AEEA-γGlu-C18 diacid])QQEFVEWLLAQKPSSGAPPPS-OH; N-terminus assumed) | 98% | 794 pM | fnd (Fnd = fibrils not detected within experiment time (96 hours) with agitation.) | fnd (Fnd = fibrils not detected within experiment time (96 hours) with agitation.) | Clear | Clear |  |  |  |  |  |
| CCCC[C@H](NC(=O)C(C)(C)NC(=O)[C@@H](NC(=O)[C@H](CO)NC(=O)[C@H](Cc1ccc(O)cc1)NC(=O)[C@H](CCC(=O)O)NC(=O)[C@H](CO)NC(=O)[C@@H](NC(=O)[C@H](Cc1ccccc1)NC(=O)[C@@H](NC(=O)CNC(=O)[C@@H](N)CCC(=O)O)[C@@H](C)O)[C@@H](C)CC)[C@@H](C)CC)C(=O)N[C@@H](CCC(=O)O)C(=O)N[C@@H](CCCCN)C(=O)N[C@H](C(=O)N[C@@H](CCCCNC(=O)COCCOCCNC(=O)COCCOCCNC(=O)CC[C@H](NC(=O)CCCCCCCCCCCCCCCCC(=O)O)C(=O)O)C(=O)N[C@@H](CCC(N)=O)C(=O)N[C@@H](CCC(N)=O)C(=O)N[C@@H](CCC(=O)O)C(=O)N[C@@H](Cc1ccccc1)C(=O)N[C@H](C(=O)N[C@@H](CCC(=O)O)C(=O)N[C@@H](Cc1c[nH]c2ccccc12)C(=O)N[C@@H](CC(C)C)C(=O)N[C@@H](CC(C)C)C(=O)N[C@@H](C)C(=O)N[C@@H](CCC(N)=O)C(=O)N[C@@H](CCCCN)C(=O)N1CCC[C@H]1C(=O)N[C@@H](CO)C(=O)N[C@@H](CO)C(=O)NCC(=O)N[C@@H](C)C(=O)N1CCC[C@H]1C(=O)N1CCC[C@H]1C(=O)N1CCC[C@H]1C(=O)N[C@@H](CO)C(=O)O)C(C)C)[C@@H](C)CC [AT696] (H-EGTFISEYSI[Aib][Nle]EKIK([AEEA-AEEA-γGlu-C18 diacid])QQEFVEWLLAQKPSSGAPPPS-OH; N-terminus assumed) | 97% |  | fnd (Fnd = fibrils not detected within experiment time (96 hours) with agitation.) | fnd (Fnd = fibrils not detected within experiment time (96 hours) with agitation.) | Clear | Clear | fnd (Fnd = fibrils not detected within experiment time (96 hours) with agitation.) | fnd (Fnd = fibrils not detected within experiment time (96 hours) with agitation.) | Clear | Clear |  |
| CC[C@H](C)[C@H](NC(=O)[C@H](CO)NC(=O)[C@H](Cc1ccc(O)cc1)NC(=O)[C@H](CCC(=O)O)NC(=O)[C@H](CO)NC(=O)[C@@H](NC(=O)[C@H](Cc1ccccc1)NC(=O)[C@@H](NC(=O)CNC(=O)CCCC(=O)O)[C@@H](C)O)[C@@H](C)CC)C(=O)N[C@@H](C)C(=O)N[C@@H](CC(C)C)C(=O)N[C@@H](CCC(=O)O)C(=O)N[C@@H](CCCCN)C(=O)N[C@H](C(=O)N[C@@H](CCCCNC(=O)COCCOCCNC(=O)COCCOCCNC(=O)CC[C@H](NC(=O)CCCCCCCCCCCCCCCCC(=O)O)C(=O)O)C(=O)N[C@@H](CCC(N)=O)C(=O)N[C@@H](CCC(N)=O)C(=O)N[C@@H](CCC(=O)O)C(=O)N[C@@H](Cc1ccccc1)C(=O)N[C@H](C(=O)N[C@@H](CCC(=O)O)C(=O)N[C@@H](Cc1c[nH]c2ccccc12)C(=O)N[C@@H](CC(C)C)C(=O)N[C@@H](CC(C)C)C(=O)N[C@@H](C)C(=O)N[C@@H](CCC(N)=O)C(=O)N[C@@H](CCCCN)C(=O)N1CCC[C@H]1C(=O)N[C@@H](CO)C(=O)N[C@@H](CO)C(=O)NCC(=O)N[C@@H](C)C(=O)N1CCC[C@H]1C(=O)N1CCC[C@H]1C(=O)N1CCC[C@H]1C(=O)N[C@@H](CO)C(=O)O)C(C)C)[C@@H](C)CC [AT707] (Glutaryl-GTFISEYSIALEKIK([AEEA-AEEA-γGlu-C18 diacid])QQEFVEWLLAQKPSSGAPPPS-OH) |  |  |  |  |  |  |  |  |  |  | 0.28 nM |
| CC[C@H](C)[C@H](NC(=O)[C@H](CCCCN)NC(=O)[C@H](CCC(=O)O)NC(=O)[C@H](CCSC)NC(=O)C(C)(C)NC(=O)[C@@H](NC(=O)[C@H](CO)NC(=O)[C@H](Cc1ccc(O)cc1)NC(=O)[C@H](CCC(=O)O)NC(=O)[C@H](CO)NC(=O)[C@@H](NC(=O)[C@H](Cc1ccccc1)NC(=O)[C@@H](NC(=O)CNC(=O)[C@@H](N)CCC(=O)O)[C@@H](C)O)[C@@H](C)CC)[C@@H](C)CC)C(=O)N[C@@H](CCCCNC(=O)CCCCCCCCCCCCCCC(=O)O)C(=O)N[C@@H](CCC(N)=O)C(=O)N[C@@H](CCC(N)=O)C(=O)N[C@@H](CC(=O)O)C(=O)N[C@@H](Cc1ccccc1)C(=O)N[C@H](C(=O)N[C@@H](CCC(=O)O)C(=O)N[C@@H](Cc1c[nH]c2ccccc12)C(=O)N[C@@H](CC(C)C)C(=O)N[C@@H](CC(C)C)C(=O)N[C@@H](C)C(=O)N[C@@H](CCC(N)=O)C(=O)N[C@@H](CCCCN)C(=O)N1CCC[C@H]1C(=O)N[C@@H](CO)C(=O)N[C@@H](CO)C(=O)NCC(=O)N[C@@H](C)C(=O)N1CCC[C@H]1C(=O)N1CCC[C@H]1C(=O)N1CCC[C@H]1C(=O)N[C@@H](CO)C(=O)O)C(C)C [AT716] (H-EGTFISEYSI[Aib]MEKIK(C16 diacid)QQDFVEWLLAQKPSSGAPPPS-OH; N-terminus assumed) |  |  |  |  |  |  |  |  |  |  | 0.29 nM |
